For series [1], the species on record is Rattus norvegicus. In words: (§1) Antifibrotic activity against TGFbeta1 stimulated rat LTC-14 cells assessed as inhibition of collagen 1 synthesis at 0.5 uM after 24 hrs by ELISA relative to calcipotriol. Type of series: functional.
A short description of series [2]: as §1. The series is classed as functional. The note with it: LTC-14, 24 h.
For series [3], the species on record is Rattus norvegicus. Description: Antifibrotic activity against TGFbeta1 stimulated rat LTC-14 cells assessed as inhibition of collagen 1 level at 500 nM after 24 hrs by Western blot. Type of series: functional. A general note: Immunoblotting shows a protein as a band on a membrane.
In series [4] the target is T1, Vitamin D3 receptor (Homo sapiens) (UniProt P11473).
T1 sequence (whole entry): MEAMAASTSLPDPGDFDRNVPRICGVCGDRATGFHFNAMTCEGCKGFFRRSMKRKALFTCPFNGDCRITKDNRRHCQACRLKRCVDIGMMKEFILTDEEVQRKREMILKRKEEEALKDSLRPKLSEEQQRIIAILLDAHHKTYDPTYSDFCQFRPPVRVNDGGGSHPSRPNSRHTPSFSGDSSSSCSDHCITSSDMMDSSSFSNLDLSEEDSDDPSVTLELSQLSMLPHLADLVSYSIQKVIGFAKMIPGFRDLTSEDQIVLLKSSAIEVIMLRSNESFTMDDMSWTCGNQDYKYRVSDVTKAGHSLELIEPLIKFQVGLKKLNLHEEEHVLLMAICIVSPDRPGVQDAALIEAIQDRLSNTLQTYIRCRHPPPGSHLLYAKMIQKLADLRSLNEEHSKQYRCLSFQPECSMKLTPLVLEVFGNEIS
Description: Transactivation of VDR (unknown origin) expressed in HEK293 cells harboring pENTER-CMV-human RXRalpha after 24 hrs by luciferase reporter gene assay. The series is classed as cell-based.

The species named for series [5] is Rattus norvegicus. Description: Antifibrotic activity against TGFbeta1 stimulated rat LTC-14 cells assessed as inhibition of alpha-SMA level at 500 nM after 24 hrs by Western blot. Type of series: functional.
Series [6] is filed under the species Rattus norvegicus. In words: Antifibrotic activity against TGFbeta1 stimulated rat LTC-14 cells assessed as inhibition of alpha-SMA mRNA expression at 500 nM after 24 hrs by RT-qPCR analysis. The series is classed as functional. (In general: Real-time PCR tracks product formation cycle by cycle.)
The subject of series [7] is Mus musculus. Description: Toxicity in caerulein induced chronic pancreatic C57BL/6J mouse model assessed as serum calcium levels at 0.5 mg/kg, po administered via gavage treated for 5 times per week measured after 3 days (reference value: 0.25 umol/ml). Type of series: organism-based. Particulars: in vivo, 72 h.
Series [8] concerns Mus musculus. Description: Toxicity in caerulein induced chronic pancreatic C57BL/6J mouse model assessed as reduction in body weight at 0.5 mg/kg, po administered via gavage treated for 5 times per week measured after 3 days. The series is classed as organism-based. Particulars: in vivo, 72 h.
Series [9] addresses T1, Vitamin D3 receptor (Homo sapiens). In words: Transactivation of VDR (unknown origin) expressed in HEK293 cells harboring pENTER-CMV-human RXRalpha at 10^-8M to 10^-6M after 24 hrs by luciferase reporter gene assay. Type of series: cell-based.
For series [10], the species on record is Rattus norvegicus. In words: Antifibrotic activity against TGFbeta1 stimulated rat LTC-14 cells assessed as inhibition of collagen 1 alpha 1 mRNA expression at 500 nM after 24 hrs by RT-qPCR analysis. The series is classed as functional.
Series [11] is described as follows: Oral bioavailability in C57BL/6J mouse at 20 mg/kg by HPLC analysis. Particulars: in vivo. The series is classed as ADME, organism-based.
Series [12] in a line: AUC (0 to infinity) in C57BL/6J mouse at 20 mg/kg, po by HPLC analysis. Details: dose 20 mg/kg, route oral, time infinity. The series is classed as ADME, organism-based. Particulars: in vivo.
The nature of series [13]: MRT in C57BL/6J mouse at 20 mg/kg, po by HPLC analysis. The series is classed as ADME, organism-based. The note with it: in vivo.
Series [14] is described as follows: AUC (0 to infinity) in C57BL/6J mouse at 10 mg/kg, iv by HPLC analysis. Type of series: ADME, organism-based. Details: dose 10 mg/kg, time infinity, route intravenous. The note with it: in vivo.
The subject of series [15] is Mus musculus. Description: Antifibrotic activity in caerulein induced chronic pancreatic C57BL/6J mouse model assessed as inhibition of pancreas lesions at 0.5 mg/kg, po administered via gavage treated for 5 times per week measured after 3 days by hematoxylin and eosin staining based histopathological analysis. The series is classed as functional, organism-based.
Series [16] deals with Mus musculus. In words: Antifibrotic activity in caerulein induced chronic pancreatic C57BL/6J mouse model assessed as inhibition of alpha-SMA expression in interstitial area of pancreas tissue at 0.5 mg/kg, po administered via gavage treated for 5 times per week measured after 3 days by immunohistochemistry analysis. Type of series: functional, organism-based.
In series [17] the test system is Mus musculus. Description: Antifibrotic activity in caerulein induced chronic pancreatic C57BL/6J mouse model assessed as inhibition of collagen deposition at 0.5 mg/kg, po administered via gavage treated for 5 times per week measured after 3 days by Masson's trichrome staining based histopathological analysis. The series is classed as functional, organism-based.

Series [18] deals with Mus musculus. In words: Toxicity in caerulein induced chronic pancreatic C57BL/6J mouse model assessed as change in serum calcium levels at 0.5 mg/kg, po administered via gavage treated for 5 times per week measured after 3 days. Type of series: organism-based. The note with it: in vivo, 72 h.
The subject of series [19] is Mus musculus. Description: Toxicity in caerulein induced chronic pancreatic C57BL/6J mouse model assessed as change in body weight at 0.5 mg/kg, po administered via gavage treated for 5 times per week measured after 3 days. Type of series: organism-based. The note with it: in vivo, 72 h.
Series [20] is described as follows: MRT in C57BL/6J mouse at 10 mg/kg, iv by HPLC analysis. Particulars: in vivo. The series is classed as ADME, organism-based.
Series [21] can be described thus: Half life in C57BL/6J mouse at 10 mg/kg, iv by HPLC analysis. The series is classed as ADME, organism-based. Particulars: in vivo.
Series [22] can be described thus: Clearance in C57BL/6J mouse at 20 mg/kg, po by HPLC analysis. Type of series: ADME, organism-based. Particulars: in vivo.
A short description of series [23]: Half life in C57BL/6J mouse at 20 mg/kg, po by HPLC analysis. The note with it: in vivo. Type of series: ADME, organism-based.
Series [24] in a line: Clearance in C57BL/6J mouse at 10 mg/kg, iv by HPLC analysis. The series is classed as ADME, organism-based. The note with it: in vivo.

The source made the active and inactive calls. The calls are words filed in the database; no cut-off is given here.

A word on the inhibition: it is the drop in the measured response relative to a control, in per cent. What is called bioavailability is the share of a dose that reaches the circulation, judged against a reference dose that is usually intravenous. A low value points to poor availability. Usually AUC(0-inf) stands for the area under the concentration-time curve extrapolated to infinity. Read a low AUC(0-inf) as low exposure. By MRT is commonly meant the average time that molecules of a dose stay in the body. The term half-life denotes the time in which the quantity being followed falls by half. Broadly, the CL/F is clearance divided by bioavailability, as obtained after extravascular dosing. Broadly, the clearance is the rate of elimination divided by the concentration.

Take `CCC(CC)(c1ccc(OCCCCCCC(=O)O)c(C)c1)c1ccc(OCC(O)C(C)(C)C)c(OCC(O)C(C)(C)C)c1` (stereo not drawn): in the series listed under Rattus norvegicus [1], the inhibition result was “inactive”.

With `CCC(CC)(c1ccc(OCCCCCCCO)c(C)c1)c1ccc(OCC(O)C(C)(C)C)c(OCC(O)C(C)(C)C)c1` (stereo not drawn), in the series listed under Rattus norvegicus [1], the inhibition result is “inactive”.

Take `CCC(CC)(c1ccc(OCCCC(=O)O)c(C)c1)c1ccc(OCC(O)C(C)(C)C)c(OCC(O)C(C)(C)C)c1` (stereo not drawn): in the series listed under Rattus norvegicus [1], the inhibition entry was “inactive”.

Consider `CCC(CC)(c1ccc(OCCCCO)c(C)c1)c1ccc(OCC(O)C(C)(C)C)c(OCC(O)C(C)(C)C)c1` (stereo not drawn), for which the inhibition at 0.5 µM in series [2] amounted to 189%. Besides, the inhibition entry in the series listed under Rattus norvegicus [3] and in the series listed under Rattus norvegicus [5] was “Active” in each case. Also, the Activity entry in series [4] was “Dose-dependent effect”.

For the compound `CCC(CC)(c1ccc(OS(C)(=O)=O)c(C)c1)c1ccc(OCC(O)C(C)(C)C)c(OCC(O)C(C)(C)C)c1` (stereo not drawn), the inhibition at 0.5 µM in series [2] is 8%.

With `CCC(CC)(c1ccc(OS(=O)(=O)c2ccc(C)cc2)c(C)c1)c1ccc(OCC(O)C(C)(C)C)c(OCC(O)C(C)(C)C)c1` (stereo not drawn), the inhibition at 0.5 µM in series [2] stood at 137%.

On to `C=C1/C(=C\C=C2/CCC[C@]3(C)[C@@H]([C@H](C)/C=C/[C@@H](O)C4CC4)CC[C@@H]23)C[C@@H](O)C[C@@H]1O` [CALCIPOTRIENE], for which the inhibition at 0.5 µM in series [2] stood at 100%. In addition, the inhibition result in the series filed under Rattus norvegicus [6], in the series listed under Rattus norvegicus [3], in the series listed under Rattus norvegicus [5] and in the series filed under Rattus norvegicus [10] was “Active” each time. Besides, the Activity in the series with Mus musculus [7] is 0.37 µmol/mL; in the series with Mus musculus [8], “Toxic”. In addition, in series [9], the result was Active.

On to `CCC(CC)(c1ccc(OCC(O)CO)c(C)c1)c1ccc(OCC(O)C(C)(C)C)c(OCC(O)C(C)(C)C)c1` (stereo not drawn), for which the inhibition at 0.5 µM in [2] came out at 147%. Moreover, in [4], the Activity result was “Dose-dependent effect”.

Consider `CCC(CC)(c1ccc(OCCCCCO)c(C)c1)c1ccc(OCC(O)C(C)(C)C)c(OCC(O)C(C)(C)C)c1` (stereo not drawn), for which the inhibition at 0.5 µM in series [2] stood at 133%.

For `CCC(CC)(c1ccc(OCCCCCC(=O)O)c(C)c1)c1ccc(OCC(O)C(C)(C)C)c(OCC(O)C(C)(C)C)c1` (stereo not drawn), the inhibition result in the series filed under Rattus norvegicus [1] is “inactive”.

With `CCC(CC)(c1ccc(OS(=O)(=O)c2ccc([N+](=O)[O-])cc2)c(C)c1)c1ccc(OCC(O)C(C)(C)C)c(OCC(O)C(C)(C)C)c1` (stereo not drawn), the inhibition at 0.5 µM in series [2] is 82%.

On to `CCC(CC)(c1ccc(OCC(=O)O)c(C)c1)c1ccc(OCC(O)C(C)(C)C)c(OCC(O)C(C)(C)C)c1` (stereo not drawn), for which the inhibition entry in the series filed under Rattus norvegicus [1] was “inactive”.

Consider `CCC(CC)(c1ccc(OCCO)c(C)c1)c1ccc(OCC(O)C(C)(C)C)c(OCC(O)C(C)(C)C)c1` (stereo not drawn), for which the inhibition at 0.5 µM in series [2] stood at 128%. Moreover, the inhibition entry in the series listed under Rattus norvegicus [3] and in the series listed under Rattus norvegicus [5] was “Active” throughout.

For the compound `CCC(CC)(c1ccc(OS(=O)(=O)c2ccc(C)cc2)c(C)c1)c1ccc(OCC(=O)C(C)(C)C)c(OCC(=O)C(C)(C)C)c1`, in series [2], the inhibition at 0.5 µM came to 85%. Also, the inhibition result in the series listed under Rattus norvegicus [3] and in the series listed under Rattus norvegicus [5] was “Active” each time.

`CCC(CC)(c1ccc(OCC(O)CO)c(C)c1)c1ccc(OCC(O)C(C)(C)C)c(C)c1` (stereo not drawn) [LG-190178]: the inhibition at 0.5 µM in [2] was found to be 97%. The inhibition entry in the series filed under Rattus norvegicus [6], in the series filed under Rattus norvegicus [3], in the series listed under Rattus norvegicus [5] and in the series listed under Rattus norvegicus [10] was “Active” in each case. In addition, the outcome in series [9] was Active.

For `CCC(CC)(c1ccc(OCCCO)c(C)c1)c1ccc(OCC(O)C(C)(C)C)c(OCC(O)C(C)(C)C)c1` (stereo not drawn), the bioavailability in [11] was 31.6%. In [2], the inhibition at 0.5 µM turned out to be 172%. The AUC(0-inf) was 20600 ng·h/mL in [12] and 32600 ng·h/mL in [14]. Further, the inhibition result in the series filed under Rattus norvegicus [6], in the series filed under Rattus norvegicus [3], with Mus musculus [15], in the series on Mus musculus [16], in the series on Mus musculus [17] and in the series filed under Rattus norvegicus [5] was “Active” in each case. Further, the inhibition entry in the series listed under Rattus norvegicus [10] is “Active”. Moreover, the MRT in series [13] turned out to be 6.59 h; in series [20], 4.65 h. Also, the Activity result in series [4] was “Dose-dependent effect”; in the series on Mus musculus [18], “Non-Toxic”; in the series on Mus musculus [19], “Non-Toxic”. The half-life was 160 min in [21] and 247 min in series [23]. In series [22], the apparent clearance CL/F was 20.2 mL/min. Moreover, the clearance in series [24] was 5.17 mL/min.

Turning to `CCC(CC)(c1ccc(OCCCCCCO)c(C)c1)c1ccc(OCC(O)C(C)(C)C)c(OCC(O)C(C)(C)C)c1` (stereo not drawn), the inhibition at 0.5 µM in [2] was found to be 74%.

`CCC(CC)(c1ccc(OS(=O)(=O)c2ccccc2)c(C)c1)c1ccc(OCC(O)C(C)(C)C)c(OCC(O)C(C)(C)C)c1` (stereo not drawn): the inhibition at 0.5 µM in series [2] was determined as 23%.

For `CCC(CC)(c1ccc(OCCCCC(=O)O)c(C)c1)c1ccc(OCC(O)C(C)(C)C)c(OCC(O)C(C)(C)C)c1` (stereo not drawn), the inhibition result in the series listed under Rattus norvegicus [1] is “inactive”.

Source of the values: ChEMBL document CHEMBL4145522, “Design, synthesis and biological evaluation of non-secosteriodal vitamin D receptor ligand bearing double side chain for the treatment of chronic pancreatitis” (Eur J Med Chem, 2018).
